Read-outs that look alike come from different tables or passages of the source.
Tests used:
C-CBL = target: T1, C-CBL (Homo sapiens, UniProt P22681); assay: Jurkat HiBit-IL2 assay (CBL-B KO), reporter cell line expressing C-CBL only; type: cell-based; conditions: geometric mean, read-out: CBL-B KO EC50 (nM) GMean
T1 construct: endogenous in cells; host or cells: Jurkat HiBit-IL2 reporter cells, CBL-B knocked out by CRISPR
Source text: (§1) Jurkat HiBit-IL2 Assay (WT, c-CBL KO, CBL-B KO)
(§2) The purpose of the Jurkat HiBit-IL2 assay is to evaluate the effect of the inhibition of CBL-B and/or C-CBL on TCR/CD28 stimulated interleukin-2 (IL-2) secretion.
(§3) The expression of IL-2 can then be accurately measured by HiBit luciferase assay. Further, C-CBL or CBL-B was knocked out by CRISPR respectively in this Jurkat HiBit-IL2 reporter cell line to create reporter cell line expressing CBL-B only (c-CBL knockout (KO)) or C-CBL only (CBL-B KO).
(§4) All three reporter cell lines were maintained in RPMI-1640 media with GlutaMax, 10% fetal bovine serum, 100 units/ml of penicillin, and 100 μg/ml of streptomycin at 37° C., 5% CO2, at a cell density 1×10e5-2×10e6 viable cells/ml. Serial diluted compounds in DMSO (40 nl/well, final 0.1% DMSO in assay cell culture) were plated into 384-well white-wall clear-bottom cell culture plates. Reporter cells were pelleted and resuspended in fresh cell culture medium to 0.66×10e6 cells/ml and added to the assay plate at 30 μl/well (20,000 cells/well). The cells were incubated with compounds for 1 hour at 37° C., 5% CO2. 10 μl/well of anti-CD3 antibody (OKT3) and anti-CD28 antibody (CD28.2) prediluted in fresh cell culture medium at 4× final concentration (anti-CD3 mAb: 4 μg/ml; anti-CD28 mAb: 8 μg/ml) was added into the cells (final concentration of anti-CD3 mAb: 1 μg/ml; anti-CD28 mAb: 2 μg/ml). The cells were cultured for another 4 hours at 37° C., 5% CO2. The Nano-Glo HiBiT Lytic Reagent was prepared following the manufacturer's protocol. 20 ul/well of the Nano-Glo HiBiT Lytic Reagent was added into the reporter cell culture assay plate and incubated at room temperature (20-25° C.) for 15 minutes. The plates were read on a Perkin-Elmer EnVision plate reader with 0.1 second integration time. Data were normalized to “Fold of Effect” with the anti-CD3 and anti-CD28 antibodies only samples as the baseline activation level and EC50 was calculated. The EC50 (nM) values reported are the geometric means (GMean) of the number of tests conducted.

CBL-B (residues 36-427) = target: T2, CBL-B (residues 36-427) (Homo sapiens, UniProt Q13191); assay: Ligand Displacement Assay (LDA), HTRF competitive binding against BODIPY-labeled fluorescent tracer, CBL-B; conditions: geometric mean of the number of tests, read-out: CBL-B Ki (nM) GMean
T2 construct: Purified CBL-B (residues 36-427) and C-CBL (residues 46-435) proteins from baculovirus-infected insect cells; made in house; host or cells: baculovirus-infected insect cells
How it was run: (§5)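 Insect-cell (baculovirus) protein, N-term AviTag biotinylated via BirA, captured by SA-Tb; BODIPY tracer, KD measured per protein. 3-fold serial dilutions, duplicate, […], 2% DMSO final. Ki (nM) = geomean of runs.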

CBL-B = target: T3, CBL-B (Homo sapiens, UniProt Q13191); assay: Jurkat HiBit-IL2 assay (c-CBL KO), reporter cell line expressing CBL-B only; type: cell-based; conditions: geometric mean, read-out: C-CBL KO EC50 (nM) GMean
T3 construct: endogenous in cells; host or cells: Jurkat HiBit-IL2 reporter cells, C-CBL knocked out by CRISPR
Source text: as §1, §2, §3, §4

C-CBL (residues 46-435) = target: T4, C-CBL (residues 46-435) (Homo sapiens, UniProt P22681); assay: Ligand Displacement Assay (LDA), HTRF competitive binding against BODIPY-labeled fluorescent tracer, C-CBL; conditions: geometric mean of the number of tests, read-out: C-CBL Ki (nM) GMean
T4 construct: Purified CBL-B (residues 36-427) and C-CBL (residues 46-435) proteins from baculovirus-infected insect cells; made in house; host or cells: baculovirus-infected insect cells
T4 sequence (P22681 46-435): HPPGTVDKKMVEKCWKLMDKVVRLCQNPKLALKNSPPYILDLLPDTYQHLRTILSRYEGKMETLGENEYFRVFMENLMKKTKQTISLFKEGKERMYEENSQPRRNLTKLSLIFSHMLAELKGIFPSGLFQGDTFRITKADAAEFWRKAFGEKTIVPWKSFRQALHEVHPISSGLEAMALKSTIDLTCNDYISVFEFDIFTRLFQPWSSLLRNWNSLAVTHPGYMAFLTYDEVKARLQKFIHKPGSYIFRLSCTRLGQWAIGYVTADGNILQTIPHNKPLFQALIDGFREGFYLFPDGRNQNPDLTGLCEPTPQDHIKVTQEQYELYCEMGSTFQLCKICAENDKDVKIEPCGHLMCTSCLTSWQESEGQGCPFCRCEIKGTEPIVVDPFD
How it was run: as §5

C-CBL (46-435) = target: T5, C-CBL (46-435) (Homo sapiens, UniProt P22681); assay: Surface Plasmon Resonance (SPR) assay, binding affinity and kinetics, C-CBL; conditions: SPR at 10° C., biotinylated C-CBL (46-435) on streptavidin chip; geometric mean; read-out: C-CBL SPR Kd (nM) GMean
T5 construct: N-terminal biotinylated WT CBL-B (36-427) and C-CBL (46-435) were captured on a streptavidin (SA) coated sensor chip
T5 sequence (P22681 46-435): T4 sequence (P22681 46-435)
How it was run: (§6)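 SPR kinetics at 10° C, run either single-cycle (0.001–1 μM, 3-fold, 6 points, 120 s on, >5400 s off) or multi-cycle (10 points, 2-fold, top 10 or 100 μM, 90 s on). Proteins were N-biotinylated CBL-B (36-427) and C-CBL (46-435) on SA surfaces, in pH 7.2 HEPES, 2% DMSO.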

WT CBL-B (36-427) = target: T6, WT CBL-B (36-427) (Homo sapiens, UniProt Q13191); assay: Surface Plasmon Resonance (SPR) assay, binding affinity and kinetics, CBL-B; conditions: SPR at 10° C., biotinylated WT CBL-B (36-427) on streptavidin chip; geometric mean; read-out: CBL-B SPR Kd (nM) GMean
T6 construct: N-terminal biotinylated WT CBL-B (36-427) and C-CBL (46-435) were captured on a streptavidin (SA) coated sensor chip
How it was run: as §6

[1] = CBL-B KO (expressing C-CBL only), Table 16b (further repetition)
[2] = C-CBL KO (expressing CBL-B only), Table 16b (further repetition)
[3] = CBL-B KO (C-CBL only), anti-CD3/anti-CD28 stimulation 4 hours, Table 16a
[4] = c-CBL KO (CBL-B only), anti-CD3/anti-CD28 stimulation 4 hours, Table 16a

SMILES	EC50 (C-CBL; [1])	Ki (CBL-B (residues 36-427))	EC50 (CBL-B; [2])	Ki (C-CBL (residues 46-435))	EC50 (C-CBL; [3])	EC50 (CBL-B; [4])	Kd (C-CBL (46-435))	Kd (WT CBL-B (36-427))
CC(NC[C@H](C)O)c1nc(C(F)(F)F)cc2c(-c3cccc([C@H](c4nncn4C)C4CCCCC4)c3)n[nH]c12 (single isomer, unassigned) [Example C99]	323 nM	3.1 nM	44 nM	13.8 nM	–	–	–	–
CC(NC[C@H](C)O)c1nc(C(F)(F)F)cc2c(-c3cccc([C@H](c4nncn4C)C4CCCCC4)c3)n[nH]c12 (single isomer, unassigned) [Example C100]	1410 nM	2.8 nM	110 nM	40.4 nM	–	–	–	–
CC(N[C@H]1CCC[C@@H]1O)c1nc(C(F)(F)F)cc2c(-c3cccc([C@H](c4nncn4C)C4CCCCC4)c3)n[nH]c12 (single isomer, unassigned) [Example C101]	909 nM	2.5 nM	58 nM	21 nM	–	–	–	–
CC(NCC(C)(C)O)c1nc(C(F)(F)F)cc2c(-c3cccc([C@H](c4nncn4C)C4CCC4)c3)n[nH]c12 (single isomer, unassigned) [Example C117]	794 nM	7.9 nM	170 nM	83.6 nM	–	–	–	–
C[C@H](NC1CCC1)c1nc(C(F)(F)F)cc2c(-c3cccc([C@H](c4nncn4C)C4COC4)c3)n[nH]c12 (single isomer, unassigned) [Example C123, N-{(1ξ)-1-[3-{3-[(ξ)-(4-methyl-4H-1,2,4-triazol-3-yl)(oxetan-3-yl)methyl]phenyl}-5-(trifluoromethyl)-1H-pyrazolo[3,4-c]pyridin-7-yl]ethyl}cyclobutanamine]	1070 nM	19.5 nM	185 nM	189 nM	–	–	–	–
CC(NC[C@H](C)O)c1nccc2c(-c3cccc([C@H](c4nncn4C)C4CCC4)c3)n[nH]c12 (single isomer, unassigned) [Example C124]	3280 nM	7.9 nM	348 nM	109 nM	–	–	–	–
C[C@H](NC(C)(C)CO)c1nc(C(F)(F)F)cc2c(-c3cccc([C@H](c4nncn4C)C4CCC4)c3)n[nH]c12 (single isomer, unassigned) [Example D17]	552 nM	1.4 nM	43 nM	33.2 nM	270 nM	19 nM	–	–
C[C@H](O)CN[C@H](C)c1nc(C(F)(F)F)cc2c(-c3cccc([C@H](c4nncn4C)C4CCC4)c3)n[nH]c12 (single isomer, unassigned) [Example D18]	137 nM	1 nM	22 nM	9 nM	96 nM	10 nM	–	–
Cn1cnnc1[C@@H](c1cccc(-c2n[nH]c3c(CN[C@@H]4CCC(F)(F)C4)nc(C(F)(F)F)cc23)c1)C1CCC1 [Example C5, (1R)-N-{[3-{3-[(R)-cyclobutyl(4-methyl-4H-1,2,4-triazol-3-yl)methyl]phenyl}-5-(trifluoromethyl)-1H-pyrazolo[3,4-c]cyclopen-7-yl]methyl}-3,3-difluorocyclopentan-1-amine]	–	55.3 nM	–	526 nM	1250 nM	–	203 nM	3.4 nM
